Assay results: patent US4126616A, “N-propylnorapomorphine diesters” (Hinshaw; William B., priority 1976, dated 1978)
Where a name gives a salt, the structure may show the parent alone. Read-outs that look alike come from different tables or passages of the source.

Test system: caudate lesioned mouse
Test: caudate lesioned mouse test (anti-parkinson activity)
Assay type: in vivo
Conditions: for ED50: caudate lesioned mouse, read-out: ED50; for responders at 6.5 µmol/kg / responders at 26 µmol/kg / responders at 132 µmol/kg / responders at 52 µmol/kg / responders at 208 µmol/kg / responders at 416 µmol/kg / responders at 104 µmol/kg / responders at 13 µmol/kg: Mus musculus; for responders at 6.5 µmol/kg: dose 0.0065 m. mole/kg; for responders at 132 µmol/kg: dose 0.132 m. mole/kg; for Molar Potency Ratio Claimed/Ref. Ester: claimed N-propyl ester vs corresponding N-methyl reference ester; for responders at 208 µmol/kg: dose 0.208 m. mole/kg; for responders at 416 µmol/kg: dose 0.416 m. mole/kg; for responders at 13 µmol/kg: dose 0.013 m. mole/kg
Procedure: An index of anti-parkinson activity was determined using the caudate lesioned mouse test described by Lotti, Life Sci., 10, 781-789 (1971). The mice having unilateral lesions of the caudate nucleus prepared according to the method of Lotti supra were observed immediately after the surgical procedure for strong postural asymmetries directed to the same side as the lesion. When this asymmetry was not observed, the mice were discarded. Operated mice were allowed at least 14 days to recover prior to drug testing. The lesioned mice were tested with apomorphine using 1.7 mg./kg. of base administered intraperitoneally in a 1% suspension in gum tragacanth. […] Only those mice which twisted or circled toward the lesioned side in all three test periods after the apomorphine injection were retained for further drug testing. The test drugs were all administered in 1% gum tragacanth suspension in a volume of 0.1 ml./10 g. of body weight. Doses were expressed in mg./kg. of free base.
Results of tests in the caudate lesioned mouse test described above which were obtained on the compounds of the invention are given in the table below identified, in each case, by the example numbers above where their preparations are described. Corresponding data for reference apomorphine diesters described in German patent application No. 2,154,162 are given in a side-by-side relationship for a number of the species. The reference compounds, designated Ref. 1, Ref. 1B, Ref. 1C, Ref. 1D, Ref. 1E, Ref. 1F, Ref. 2 and Ref. 2A correspond, respectively, to the compounds of the invention identified by Examples 1, 1B, 1C, 1D, 1E, 1F, 2 and 2A and differ from the latter only in having a methyl group on the apomorphine nitrogen from instead of an n-propyl group as present in the instant compounds.

[1] = 0.5 h, dose 0.026 m. mole/kg, 1/2 h post-drug, read-out: No. Mice Affected/No. Mice Tested, 1/2 h (converted)
[2] = 1 h post-drug, read-out: No. Mice Affected/No. Mice Tested, 1 h
[3] = 6 h post-drug, read-out: No. Mice Affected/No. Mice Tested, 6 h
[4] = 24 h post-drug, read-out: No. Mice Affected/No. Mice Tested, 24 h
[5] = dose 0.026 m. mole/kg, 1 h post-drug, read-out: No. Mice Affected/No. Mice Tested, 1 h (converted)
[6] = dose 0.026 m. mole/kg, 2 h post-drug, read-out: No. Mice Affected/No. Mice Tested, 2 h (converted)
[7] = dose 0.026 m. mole/kg, 4 h post-drug, read-out: No. Mice Affected/No. Mice Tested, 4 h (converted)
[8] = dose 0.026 m. mole/kg, 6 h post-drug, read-out: No. Mice Affected/No. Mice Tested, 6 h (converted)
[9] = dose 0.026 m. mole/kg, 24 h post-drug, read-out: No. Mice Affected/No. Mice Tested, 24 h
[10] = dose 0.026 m. mole/kg, total, read-out: No. Mice Affected/No. Mice Tested, Total (converted)
[11] = 0.5 h, 1/2 h post-drug, read-out: No. Mice Affected/No. Mice Tested, 1/2 h (converted)
[12] = 1 h post-drug, read-out: No. Mice Affected/No. Mice Tested, 1 h (converted)
[13] = 2 h post-drug, read-out: No. Mice Affected/No. Mice Tested, 2 h (converted)
[14] = 4 h post-drug, read-out: No. Mice Affected/No. Mice Tested, 4 h (converted)
[15] = 6 h post-drug, read-out: No. Mice Affected/No. Mice Tested, 6 h (converted)
[16] = 24 h post-drug, read-out: No. Mice Affected/No. Mice Tested, 24 h (converted)
[17] = total, read-out: No. Mice Affected/No. Mice Tested, Total (converted)
[18] = 0.5 h, read-out: No. Mice Affected/No. Mice Tested, 1/2 h
[19] = 1 h, read-out: No. Mice Affected/No. Mice Tested, 1 h
[20] = 4 h, read-out: No. Mice Affected/No. Mice Tested, 4 h
[21] = 6 h, read-out: No. Mice Affected/No. Mice Tested, 6 h
[22] = 24 h, read-out: No. Mice Affected/No. Mice Tested, 24 h
[23] = read-out: No. Mice Affected/No. Mice Tested, Total

`CCCN1CCc2cccc3c2C1Cc1ccc(OC(=O)c2ccc(OC)cc2)c(OC(=O)c2ccc(OC)cc2)c1-3` (stereo not drawn) [Ex. 1J, N-Propylnorapomorphine bis-4-methoxybenzoate] gave an ED50 of 13 µmol/kg, a responders at 6.5 µmol/kg (0.5 h, 1/2 h post-drug, read-out: No. Mice Affected/No. Mice Tested, 1/2 h) of 0% and a responders at 26 µmol/kg [1] of 50%. For the same molecule, the responders at 6.5 µmol/kg [2] was 0%, the responders at 6.5 µmol/kg (2 h post-drug, read-out: No. Mice Affected/No. Mice Tested, 2 h) was 0% and the responders at 6.5 µmol/kg (4 h post-drug, read-out: No. Mice Affected/No. Mice Tested, 4 h) was 0%. The responders at 6.5 µmol/kg [3] was 0%, the responders at 6.5 µmol/kg [4] was 0% and the responders at 6.5 µmol/kg (total, read-out: No. Mice Affected/No. Mice Tested, Total) was 0%. For the same molecule, the responders at 26 µmol/kg [5] was 100%, the responders at 26 µmol/kg [6] was 75% and the responders at 26 µmol/kg [7] was 50%. It also gave a responders at 26 µmol/kg [8] of 50%, a responders at 26 µmol/kg [9] of 0% and a responders at 26 µmol/kg [10] of 100%.

For `CCCCC(=O)Oc1ccc2c(c1OC(=O)CCCC)-c1cccc3c1C(C2)N(CCC)CC3` (stereo not drawn) [Ex. 2A, N-propylnorapomorphine dipentanoate hydrochloride], the responders at 26 µmol/kg [1] was 0%, the responders at 132 µmol/kg [11] was 50% and the responders at 26 µmol/kg [5] was 0%. It also gave a responders at 26 µmol/kg [6] of 0%, a responders at 26 µmol/kg [7] of 0% and a responders at 26 µmol/kg [8] of 0%. For the same molecule, the responders at 26 µmol/kg [9] was 0%, the responders at 26 µmol/kg [10] was 0% and the responders at 132 µmol/kg [12] was 75%. It also gave a responders at 132 µmol/kg [13] of 75%, a responders at 132 µmol/kg [14] of 75% and a responders at 132 µmol/kg [15] of 75%. The responders at 132 µmol/kg [16] was 75%, the responders at 132 µmol/kg [17] was 75% and the “Molar Potency Ratio Claimed/Ref. Ester” value was no less than 3.

`CCCN1CCc2cccc3c2C1Cc1ccc(OC(=O)C(C)C)c(OC(=O)C(C)C)c1-3` (stereo not drawn) [Ex. 1B, N-Propylnorapomorphine diisobutyrate] was tested, and the responders at 26 µmol/kg [1] was 0%, the responders at 52 µmol/kg (0.5 h, dose 0.052 m. mole/kg, 1/2 h post-drug, read-out: No. Mice Affected/No. Mice Tested, 1/2 h (converted)) was 33.3% and the responders at 26 µmol/kg [5] was 25%. For the same molecule, the responders at 26 µmol/kg [7] was 50%, the responders at 26 µmol/kg [8] was 50% and the responders at 26 µmol/kg [9] was 0%. For the same molecule, the responders at 26 µmol/kg [10] was 50%, the responders at 52 µmol/kg (dose 0.052 m. mole/kg, 1 h post-drug, read-out: No. Mice Affected/No. Mice Tested, 1 h (converted)) was 33.3% and the responders at 52 µmol/kg (dose 0.052 m. mole/kg, 4 h post-drug, read-out: No. Mice Affected/No. Mice Tested, 4 h (converted)) was 33.3%. For the same molecule, the responders at 52 µmol/kg (dose 0.052 m. mole/kg, 6 h post-drug, read-out: No. Mice Affected/No. Mice Tested, 6 h (converted)) was 0%, the responders at 52 µmol/kg (dose 0.052 m. mole/kg, 24 h post-drug, read-out: No. Mice Affected/No. Mice Tested, 24 h) was 0% and the responders at 52 µmol/kg (dose 0.052 m. mole/kg, total, read-out: No. Mice Affected/No. Mice Tested, Total (converted)) was 33.3%. For the same molecule, the “Molar Potency Ratio Claimed/Ref. Ester” value was no less than 8.

In the case of `CCCCC(=O)Oc1ccc2c(c1OC(=O)CCCC)-c1cccc3c1C(C2)N(C)CC3` (stereo not drawn) [Ref. 2A, reference compound], the responders at 208 µmol/kg [11] is reported as 0%, the responders at 416 µmol/kg [11] is reported as 33.3% and the responders at 208 µmol/kg [2] is reported as 0%. The responders at 208 µmol/kg [14] was 0%, the responders at 208 µmol/kg [15] was 0% and the responders at 208 µmol/kg [16] was 0%. It also gave a responders at 208 µmol/kg [17] of 0%, a responders at 416 µmol/kg [12] of 0% and a responders at 416 µmol/kg [14] of 0%. For the same molecule, the responders at 416 µmol/kg [15] was 0%, the responders at 416 µmol/kg [4] was 0% and the responders at 416 µmol/kg [17] was 33.3%.

In the case of `CCCN1CCc2cccc3c2C1Cc1ccc(OC(C)=O)c(OC(C)=O)c1-3` (stereo not drawn) [Ex. 2, N-propylnorapomorphine diacetate], the responders at 26 µmol/kg [18] is reported as 100%, the responders at 52 µmol/kg [18] is reported as 25% and the responders at 104 µmol/kg [18] is reported as 50%. The responders at 26 µmol/kg [19] was 100%, the responders at 52 µmol/kg [19] was 25% and the responders at 104 µmol/kg [19] was 75%. It also gave a responders at 26 µmol/kg [20] of 50%, a responders at 52 µmol/kg [20] of 25% and a responders at 104 µmol/kg [20] of 25%. It also gave a responders at 26 µmol/kg [21] of 100%, a responders at 52 µmol/kg [21] of 75% and a responders at 104 µmol/kg [21] of 50%. The responders at 26 µmol/kg [22] was 50%, the responders at 52 µmol/kg [22] was 0% and the responders at 104 µmol/kg [22] was 50%. It also gave a responders at 26 µmol/kg [23] of 100%, a responders at 52 µmol/kg [23] of 75% and a responders at 104 µmol/kg [23] of 75%. For the same molecule, the “Molar Potency Ratio Claimed/Ref. Ester” value was no less than 16.

`CCCN1CCc2cccc3c2C1Cc1ccc(OC(=O)C2CC2)c(OC(=O)C2CC2)c1-3` (stereo not drawn) [Ex. 1M, N-Propylnorapomorphine bis-cyclopropanecarboxylate] was tested, and the ED50 was 13 µmol/kg, the responders at 13 µmol/kg [11] was 50% and the responders at 26 µmol/kg [1] was 100%. For the same molecule, the responders at 132 µmol/kg [11] was 100%, the responders at 13 µmol/kg [12] was 50% and the responders at 13 µmol/kg [13] was 50%. It also gave a responders at 13 µmol/kg [14] of 25%, a responders at 13 µmol/kg [3] of 0% and a responders at 13 µmol/kg [4] of 0%. The responders at 13 µmol/kg [17] was 50%, the responders at 26 µmol/kg [5] was 75% and the responders at 26 µmol/kg [6] was 75%. The responders at 26 µmol/kg [7] was 75%, the responders at 26 µmol/kg [8] was 75% and the responders at 26 µmol/kg [9] was 0%. The responders at 26 µmol/kg [10] was 100%, the responders at 132 µmol/kg [12] was 100% and the responders at 132 µmol/kg [13] was 100%. For the same molecule, the responders at 132 µmol/kg [14] was 100%, the responders at 132 µmol/kg [15] was 100% and the responders at 132 µmol/kg [16] was 100%. The responders at 132 µmol/kg [17] was 100%.
